SMILES strings stand for the structures. pIC50: −log10 of the molar value.

The nature of data set [1]: Oral PK of 15u and 15u_D6, female CD-1 mice. Particulars: 30 mg/kg, AUC within the first eight hours.
In the next data set the target is T1, CDC2L5 (Homo sapiens, UniProt Q14004).
T1 construct: purchased DiscoverX (KINOMEscan scanMAX service)
Kind of data set: KINOMEscan scanMAX. Type of data set: binding. The following applies: CDC2L5, 2000 nM. From the text: (§1) Nat. Biotechnol. 23, 329-336 (2005).
(§2) Percent Control (% Ctrl).
(§3) % Ctrl=100×(TS−CPOS)/(CNEG−CPOS) (eqn 1)

Another data set addresses T2, PKNB(M. tuberculosis) (Mycobacterium tuberculosis, UniProt P9WI81).
T2 construct: purchased DiscoveRx (KINOMEscan scanMAX panel)
Kind of data set: KINOMEscan scanMAX. Type of data set: binding. Particulars: 2000 nM.
Text: as §1, §2, §3

A further data set concerns FLT3(ITD, D835V). The data set is described as follows: KINOMEscan scanMAX. Type of data set: binding. The following applies: 2000 nM.
Text: as §1, §2, §3

For a further data set, the system named is FLT3(ITD, F691L). Kind of data set: KINOMEscan scanMAX. Particulars: 2000 nM. The class given is binding.
Text: as §1, §2, §3

Another data set deals with T3, PFCDPK1(P. falciparum) (Plasmodium falciparum, UniProt P62344).
T3 construct: DNA label (qPCR read-out); purchased DiscoveRx (KINOMEscan scanMAX)
The data set is described as follows: KINOMEscan scanMAX. Type of data set: binding. Particulars: 2000 nM.
Text: as §1, §2, §3

A further data set concerns the target T4, PFPK5(P. falciparum) (Plasmodium falciparum, UniProt P61075).
T4 construct: purchased KINOMEscan (DiscoveRx) scanMAX panel
Kind of data set: KINOMEscan scanMAX. The class given is binding. The following applies: 2000 nM.
Text: as §1, §2, §3

A further data set concerns the target T5, PRP4 (Homo sapiens, UniProt Q13523).
T5 construct: DNA label (qPCR read-out); purchased DiscoverX (KINOMEscan)
Kind of data set: KINOMEscan scanMAX. The class given is binding. The following applies: PRP4, 2000 nM.
Text: as §1, §2, §3

The test system of the next data set is FLT3(ITD). Kind of data set: KINOMEscan scanMAX. Type of data set: binding. Particulars: 2000 nM.
Text: as §1, §2, §3

For another data set, the system named is CDK8/19. The data set is described as follows: NFκB reporter assay in parental 293 reporter cells. Type of data set: cell-based. The following applies: NFκB Activity Assay as described in Example 1; read-out: Inhibition Potency HEK293-NFkB-Luc Assay. From the text:
We have used a cell-based assay to measure the inhibition of CDK8/19 activity by thienopyridine derivatives. This assay, based on the role of CDK8/19 in NFκB-driven transcription (Chen, 2017), measures the effects of CDK8/19 on the expression of firefly luciferase reporter from a NFκB-dependent promoter in 293 cells. Lentiviral vector pHAGE-NFKB-TA-LUC-UBC-dTomato-W (Addgene #49335) was introduced into 293 cells and a clonal cell line showing the strongest induction of luciferase expression upon TNFα treatment was established and used as the reporter cell line. As a control for CDK8/19 dependence of NFκB inhibition, we have also introduced the same reporter construct into 293 cells with CRISPR/CAS9 knockout of both CDK8 and CDK19.
FIG. 2C and Table 1 compares the IC50 values for different thienopyridines measured in the NFκB reporter assay in parental 293-derived reporter cell line to the cell-based activity values measured for the same compounds by Saito (2013) based on their effect on alkaline phosphatase (ALPase), an indicator of differentiation to osteoblasts in the mouse bone marrow stromal cell line ST2. The latter effects are expressed as EC200, a concentration that enhances ALPase activity to 200% of control.

The nature of a further data set: in vivo. The following applies: female, CD-1, mouse, serum, po, 30 mg/kg.
Data set [2] relates to MYC-CAP-CR cells. The data set is described as follows: Long-term clonogenic assay, MYC-CaP-CR. The class given is cell-based, murine. Particulars: 1 μM Senexin B, 1 μM 15u, 5 μM enzalutamide. From the text: (§4) MYC-CaP-CR cells (Ellis L. et al., 2012. Prostate 72(6):587-591) were selected for castration resistance from genetically engineered MYC-CaP cells that express MYC from an AR-responsive promoter (Watson P A, et al., 2005. Cancer Res 65(24):11565-11571). Castration resistance in these cells is associated with the overexpression of full-length AR rather than an AR variant, such as AR-V7 in 22rv1 (Olson B M, et al., 2017. Cancer immunology research 5(12):1074-1085).

For data set [3], the system named is PSA expression in CRPC cell line C4-2. Kind of data set: PSA expression in cell culture supernatant of C4-2 cells. The class given is cell-based. Particulars: C4-2 culture supernatant, 4-day treatment, FBS-supplemented regular media. From the text:
CDK8/19 inhibition decreases the expression of certain androgen-receptor (AR) inducible genes including PSA, the most common marker of prostate cancer, and the growth of castration-refractory prostate cancers (CRPC).

Data set [4] concerns CRPC cell line 22rv1 xenograft. The following applies: Senexin B 133 mg/kg once a day or 66 mg/kg twice a day (FIG. 8D).
For data set [5], the system named is 4T1 murine TNBC lung metastasis. The data set is described as follows: 4T1 breast cancer metastasis survival after primary tumor removal. The class given is in vivo, mouse. Particulars: Senexin B medicated food (350 ppm) plus one oral dose 50 mg/kg. As to the method: 4T1 is a murine triple-negative breast cancer (TNBC) cell line, which is highly metastatic to the lungs. […] Parental and CDK8-knockdown 4T1 cells (n=10) were injected orthotopically in the mammary fat pad and the primary tumors were removed 17 days later. Following surgery, all the mice eventually died with lung metastases. […] However, the loss of CDK8 was associated with a strong increase in the survival of mice (FIG. 10C). […]

The subject of data set [6] is MYC-CAP-CR cells. The data set is described as follows: Short-term cell proliferation assay, MYC-CAP-CR. The class given is cell-based, murine. The following applies: androgen-containing media.
Text: as §4

A further data set has as its system MYC-CaP-CR tumors. The data set is described as follows: MYC-CaP-CR tumors subcutaneous in intact FVB male mice. The class given is in vivo, mouse.
Text: as §4

T3 sequence (P62344 whole entry): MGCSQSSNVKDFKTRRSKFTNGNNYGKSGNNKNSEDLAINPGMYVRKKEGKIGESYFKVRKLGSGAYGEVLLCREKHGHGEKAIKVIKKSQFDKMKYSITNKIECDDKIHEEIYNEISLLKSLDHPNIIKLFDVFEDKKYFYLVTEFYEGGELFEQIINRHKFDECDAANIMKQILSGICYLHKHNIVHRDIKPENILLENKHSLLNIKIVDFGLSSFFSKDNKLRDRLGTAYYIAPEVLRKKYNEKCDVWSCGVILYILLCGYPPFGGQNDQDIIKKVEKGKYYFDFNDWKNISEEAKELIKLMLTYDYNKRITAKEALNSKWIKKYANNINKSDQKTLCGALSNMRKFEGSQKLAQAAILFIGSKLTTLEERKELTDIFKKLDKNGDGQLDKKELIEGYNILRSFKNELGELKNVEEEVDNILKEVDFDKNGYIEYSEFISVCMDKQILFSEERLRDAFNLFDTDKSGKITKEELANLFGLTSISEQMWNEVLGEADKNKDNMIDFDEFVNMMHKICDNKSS
T5 sequence (Q13523 whole entry): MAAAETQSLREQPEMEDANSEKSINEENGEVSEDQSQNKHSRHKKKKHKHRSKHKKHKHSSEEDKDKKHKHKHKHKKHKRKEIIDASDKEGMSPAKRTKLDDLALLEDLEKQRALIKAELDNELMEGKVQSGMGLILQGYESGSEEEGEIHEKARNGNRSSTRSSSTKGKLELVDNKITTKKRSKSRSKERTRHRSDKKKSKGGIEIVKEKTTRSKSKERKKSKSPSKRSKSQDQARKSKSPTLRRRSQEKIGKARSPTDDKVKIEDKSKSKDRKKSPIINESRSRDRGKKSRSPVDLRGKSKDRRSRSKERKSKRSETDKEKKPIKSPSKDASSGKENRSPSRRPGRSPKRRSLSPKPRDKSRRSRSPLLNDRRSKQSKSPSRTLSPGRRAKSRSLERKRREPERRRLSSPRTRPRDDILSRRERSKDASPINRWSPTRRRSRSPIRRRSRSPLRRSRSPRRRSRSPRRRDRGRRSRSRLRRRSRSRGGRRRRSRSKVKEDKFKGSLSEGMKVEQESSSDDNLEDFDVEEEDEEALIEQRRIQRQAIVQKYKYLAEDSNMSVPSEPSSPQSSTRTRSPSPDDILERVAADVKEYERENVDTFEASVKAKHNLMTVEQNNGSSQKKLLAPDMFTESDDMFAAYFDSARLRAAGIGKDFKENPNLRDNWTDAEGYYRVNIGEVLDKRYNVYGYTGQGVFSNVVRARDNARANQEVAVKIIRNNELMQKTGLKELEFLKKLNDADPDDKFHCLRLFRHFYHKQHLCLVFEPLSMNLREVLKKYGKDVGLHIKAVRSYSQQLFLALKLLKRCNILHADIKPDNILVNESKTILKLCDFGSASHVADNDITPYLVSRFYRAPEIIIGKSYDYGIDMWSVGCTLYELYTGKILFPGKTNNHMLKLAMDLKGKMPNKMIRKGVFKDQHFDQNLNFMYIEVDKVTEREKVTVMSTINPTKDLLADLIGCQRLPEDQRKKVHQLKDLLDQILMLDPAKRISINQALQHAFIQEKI
T1 sequence (Q14004 whole entry): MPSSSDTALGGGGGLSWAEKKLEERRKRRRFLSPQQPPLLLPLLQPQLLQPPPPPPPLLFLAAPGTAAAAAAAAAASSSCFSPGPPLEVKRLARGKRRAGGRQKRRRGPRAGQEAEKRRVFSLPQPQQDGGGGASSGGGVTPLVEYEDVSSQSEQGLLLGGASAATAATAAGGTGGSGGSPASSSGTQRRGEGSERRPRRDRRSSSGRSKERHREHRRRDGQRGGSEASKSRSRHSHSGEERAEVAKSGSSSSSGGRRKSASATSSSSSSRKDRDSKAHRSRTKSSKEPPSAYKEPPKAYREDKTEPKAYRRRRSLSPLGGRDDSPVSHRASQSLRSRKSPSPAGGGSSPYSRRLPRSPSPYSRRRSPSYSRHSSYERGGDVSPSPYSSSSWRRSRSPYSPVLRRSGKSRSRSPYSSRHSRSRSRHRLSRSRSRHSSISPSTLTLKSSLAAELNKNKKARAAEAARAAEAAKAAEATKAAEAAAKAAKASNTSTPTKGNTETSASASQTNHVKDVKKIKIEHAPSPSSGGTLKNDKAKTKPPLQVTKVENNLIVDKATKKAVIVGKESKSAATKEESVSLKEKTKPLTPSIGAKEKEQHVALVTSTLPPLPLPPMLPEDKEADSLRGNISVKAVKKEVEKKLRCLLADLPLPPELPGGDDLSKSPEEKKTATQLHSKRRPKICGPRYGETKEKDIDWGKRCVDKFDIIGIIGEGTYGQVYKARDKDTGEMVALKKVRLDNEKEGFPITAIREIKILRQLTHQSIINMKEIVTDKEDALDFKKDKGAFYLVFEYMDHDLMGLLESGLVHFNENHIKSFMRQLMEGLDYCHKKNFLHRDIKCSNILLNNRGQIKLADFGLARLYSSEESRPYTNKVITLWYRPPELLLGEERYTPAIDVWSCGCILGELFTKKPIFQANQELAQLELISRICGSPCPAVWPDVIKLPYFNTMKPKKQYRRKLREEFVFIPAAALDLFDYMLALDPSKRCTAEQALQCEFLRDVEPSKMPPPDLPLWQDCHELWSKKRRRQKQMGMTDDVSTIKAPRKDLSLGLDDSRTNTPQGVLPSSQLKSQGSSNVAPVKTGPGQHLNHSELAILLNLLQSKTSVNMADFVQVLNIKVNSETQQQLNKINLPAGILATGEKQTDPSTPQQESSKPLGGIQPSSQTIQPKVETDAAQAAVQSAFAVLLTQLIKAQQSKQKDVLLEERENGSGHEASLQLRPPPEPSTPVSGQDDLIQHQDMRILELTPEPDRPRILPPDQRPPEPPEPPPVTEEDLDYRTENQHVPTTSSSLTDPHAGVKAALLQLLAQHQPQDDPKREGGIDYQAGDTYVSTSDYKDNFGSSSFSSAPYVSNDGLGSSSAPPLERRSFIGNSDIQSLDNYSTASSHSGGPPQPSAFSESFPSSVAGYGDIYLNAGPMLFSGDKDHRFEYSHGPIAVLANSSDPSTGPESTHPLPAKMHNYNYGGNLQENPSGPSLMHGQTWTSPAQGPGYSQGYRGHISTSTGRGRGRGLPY
T2 sequence (P9WI81 whole entry): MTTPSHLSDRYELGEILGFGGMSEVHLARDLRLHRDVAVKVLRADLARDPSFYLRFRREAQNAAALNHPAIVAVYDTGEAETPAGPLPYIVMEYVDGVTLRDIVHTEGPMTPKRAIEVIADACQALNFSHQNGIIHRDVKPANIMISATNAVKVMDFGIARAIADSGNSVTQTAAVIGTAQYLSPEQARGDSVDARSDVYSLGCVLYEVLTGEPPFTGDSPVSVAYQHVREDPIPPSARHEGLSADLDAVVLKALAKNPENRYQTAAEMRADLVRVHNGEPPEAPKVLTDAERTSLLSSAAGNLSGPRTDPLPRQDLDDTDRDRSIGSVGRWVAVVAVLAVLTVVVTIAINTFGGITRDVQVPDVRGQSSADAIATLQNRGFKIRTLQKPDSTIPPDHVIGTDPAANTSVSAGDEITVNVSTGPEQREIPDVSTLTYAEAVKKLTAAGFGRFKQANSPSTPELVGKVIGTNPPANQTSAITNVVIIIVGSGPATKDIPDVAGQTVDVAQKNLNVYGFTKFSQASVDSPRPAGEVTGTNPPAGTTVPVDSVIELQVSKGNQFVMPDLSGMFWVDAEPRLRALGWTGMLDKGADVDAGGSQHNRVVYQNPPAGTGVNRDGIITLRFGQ
T4 sequence (P61075 whole entry): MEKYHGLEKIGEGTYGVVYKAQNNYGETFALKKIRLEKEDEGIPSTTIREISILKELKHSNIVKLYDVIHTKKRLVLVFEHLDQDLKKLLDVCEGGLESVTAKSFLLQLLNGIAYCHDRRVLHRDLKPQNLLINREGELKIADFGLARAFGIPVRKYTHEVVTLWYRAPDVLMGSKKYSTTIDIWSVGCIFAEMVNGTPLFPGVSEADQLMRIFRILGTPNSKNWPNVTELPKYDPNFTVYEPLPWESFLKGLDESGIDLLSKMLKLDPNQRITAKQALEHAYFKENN

`[2H]C([2H])([2H])N(C(=O)c1ccc(N2CCCN(c3ccnc4sc(C(N)=O)c(N)c34)CC2)cc1)C([2H])([2H])[2H]` [Compound 15u_D6, 3-amino-4-(4-(4-(bis(methyl-d3)carbamoyl)phenyl)-1,4-diazepan-1-yl)thieno[2,3-b]pyridine-2-carboxamide]: the “PK of the D6 derivative compared with 15u” value in data set [1] was “slightly improved the PK”. Moreover, the “% Ctrl” value came to 80 % Ctrl at CDC2L5; 90 % Ctrl on PKNB(M. tuberculosis); 34 % Ctrl in the data set with FLT3(ITD, D835V); 75 % Ctrl with FLT3(ITD, F691L); 61 % Ctrl at PFCDPK1(P. falciparum); 67 % Ctrl on PFPK5(P. falciparum). Besides, the “% Ctrl” value at PRP4 is reported as 88 % Ctrl; in the data set on FLT3(ITD), 72 % Ctrl. Moreover, in the data set on CDK8/19, the pIC50 is 8.11. The exposure AUC(0-t) in “in vivo” turned out to be 7400 ng·h/mL.

In the case of `CN1CCN(C(=O)c2ccc3cc(CCNc4ncnc5ccc(C#N)cc45)ccc3c2)CC1` [Senexin B, reference compound], in the data set with MYC-CAP-CR cells [2], the MYC-CaP-CR colony formation result is given as “decreased MYC-CaP-CR colony formation”. The pIC50 in data set [3] was 6.59. For the same molecule, in data set [4], the “22rv1 growth in castrated mice” value is given as “significantly inhibited 22rv1 growth”. Moreover, in data set [5], the “survival after removal of the primary 4T1 tumor” value was “statistically significant but moderate increase in survival”. In the data set on MYC-CAP-CR cells [6], the MYC-CAP-CR cell growth entry is on record as “little effect”.

For `CNC(=O)c1ccc(N2C(=S)N(c3ccc(C#N)c(C(F)(F)F)c3)C(=O)C2(C)C)cc1F` [enzalutamide], the MYC-CaP-CR colony formation entry with MYC-CAP-CR cells [2] is recorded as “decreased MYC-CaP-CR colony formation”. Moreover, the “MYC-CaP-CR tumor volume and weight” value in the data set with MYC-CaP-CR tumors is reported as “modest effect”. Also, in the data set on MYC-CAP-CR cells [6], the MYC-CAP-CR cell growth result is reported as “paradoxically stimulated the growth”.

As usually defined, the AUC(0-t) is exposure summed from dosing to a finite time, without extrapolation to infinity. Read a high AUC(0-t) as more exposure.

The values are drawn from patent US20220226343A1, “3-AMINO-4-[4-[4 (DIMETHYLCARBAMOYL) PHENYL]-1,4-DIAZEPAN-1-YL]THIENO[2,3-B]PYRIDINE-2-CARBOXAMIDE FOR USE IN CANCER THERAPY AND FORMULATIONS COMPRISING THE SAME” (University of South Carolina, priority 2019, published 2022).
